Experiments:
[1] = test system: isolated perfused rat pancreas (insulin secretion); test: Insulin-secretory activity in the isolated perfused rat pancreas; parameters: species or system rat (female Charles River); conditions: 50 μM; 16.7 mM glucose; index > 1 indicates suppression of insulin secretion
Description: DETERMINATION OF INSULIN-SECRETORY ACTIVITY IN THE ISOLATED PERFUSED RAT PANCREAS
Pancreases were obtained from young adult female Charles River rats weighing from 200-300 g. The animals were anesthesized with sodium pentobarbitol (45 mg/kg), injected intraperitoneally, and the pancreas with its intact vasculature was removed and connected to an extracorporeal perfusion apparatus.
The basic perfusion solution contained: 133 mM NaCl, 4.4 mM KCl, 2.5 mM MgSO4, 2.4 mM Ca gluconate, 1.5 mM KH2 PO4, 29.4 mM HaHCO3, 4% dextran and 0.2% bovine serum albumin and glucose as discussed below. The perfusion flow rate was kept constant at 4 ml/min. After a 15-20 minute equilibration period, the experimental protocol was begun. The pancreatic effluent was collected in either one or four-minute fractions.
The perfusion was run in the following sequence for each test compounds:
30 min 16.7 mM glucose--internal control
30 min 16.7 mM glucose and test compound
10 min 16.7 mM glucose--to check pancreas viability
The perfusion for the nontreated pancreas preparation was run as above, except that the test compound was omitted and replaced with perfusion solution.
Test compounds were dissolved in 90% ethanol or dimethylsulfoxide to a concentration of 25 mM and then diluted in the perfusion buffer to the desired concentration. The perfusion effluent was collected in one or four minute fractions--the samples were checked immediately, aliquoted for submission to radioimmunoassay and stored at -20° C. until the time of assay. The radioimmunoassay of insulin was carried out by a back-titration method using a pure rat insulin standard.
To assess the inhibitory activity of the test compounds, an inhibition index was calculated. The inhibition index is derived by comparing the insulin secretion response from treated versus nontreated pancreas preparations. For each preparation, a ratio of insulin secretion was calculated from the area under the insulin secretion curve of the first pulse of 16.7 mM glucose divided by the area under the curve of the second pulse of 16.7 mM glucose containing compound.

[2] = Glucose clearance: acute in vivo model; parameters: species or system Sprague-Dawley rats; conditions: Rattus norvegicus, po, 0.5 h; 100 mg/kg intragastric, 30 min before i.p. glucose 1 g/kg; circulating glucose at 30 min; >100% indicates activity
Description: GLUCOSE CLEARANCE: ACUTE IN VIVO MODEL
The rationale for this test is that compounds which suppress insulin secretion should increase circulating glucose levels above those observed in controls following the administration of a high glucose load. Sprague-Dawley rats which range in weight from 150 to 180 grams after an overnight fast of 16 or 18 hours are given the test compound (100 mg/kg body weight) by intragastric administration 30 minutes before the intraperitoneal administration of glucose (1 g/kg body weight). Circulating glucose levels are determined immediately before glucose administration and 30, 60 and 90 minutes after glucose administration. Active compounds increase circulating glucose levels compared to controls. Since glucose levels peak at 30 minutes following glucose administration, the difference in circulating glucose levels between controls and treated rats at 30 minutes is used as an index of activity. The data are expressed as percent of control.

[3] = Antiobesity effects in obese Zucker rats; assay type: in vivo, genetically obese male Zucker rats; conditions: for Circulating Insulin: last day of treatment
Description: ANTIOBESITY EFFECTS IN OBESE ZUCKER RATS
Genetically Obese Male Zucker rats were kept in temperature (22° C.) and light (12 hours light-dark cycle) regulated rooms. One week prior to the start of the experiment, the rats were transferred to individual wirebottomed cages and trained to eat a powdered chow diet (Ralston Purina Co., St. Louis, Mo.) ad libitum.
At the beginning of the experiment, the control group contributed to eat the chow diet and the experimental animals were given a chow diet containing drug. The amount of drug administered was calculated from the food intake per kg body weight for each experimental group. The age of the rats at the start of the drug treatment was two to three months. The period of treatment was 28 to 64 days. Food intake and body weights were recorded periodically (once each day to twice a week) throughout the duration of the study. Plasma samples for insulin and glucose determinations were taken from clipped tails. Carcass composition was determined at the end of the treatment period and, or comparative purposes, prior to the start of treatment.

[4] = Antiobesity effects in obese Zucker rats; assay type: in vivo, genetically obese male Zucker rats; conditions: 14 days

C(=C(c1ccccc1)c1ccccc1)C1CCN(CCCCCCCCc2cccnc2)CC1 [Example 25, 3-[8-[4-(2,2-diphenylethenyl)-1-piperidinyl]octyl]pyridine]
Perfused Pancreas Inhibition Index [1]: 38 | response vs control in vivo at 100 mg/kg [2]: 127% | Body Weight Gain (treated minus control) ([3]; 9 mg/kg, 28 days): +9 g | Food Intake ([3]; 9 mg/kg, 28 days): 91 % of control | Circulating Insulin ([3]; 9 mg/kg, 28 days): 83 % of control | Body Weight Gain (treated minus control) ([3]; 17 mg/kg, 28 days): -16 g | Food Intake ([3]; 17 mg/kg, 28 days): 89 % of control | Circulating Insulin ([3]; 17 mg/kg, 28 days): 76 % of control | Circulating Insulin ([3]; 24 mg/kg, 28 days, * p < 0.05): 47 % of control | Body Weight Gain (treated minus control) ([3]; 24 mg/kg, 28 days, * p < 0.05): -32 g | Food Intake ([3]; 24 mg/kg, 28 days, * p < 0.05): 82 % of control | Circulating Insulin ([3]; 28 mg/kg, 64 days, * p < 0.05): 47 % of control | Body Weight Gain (treated minus control) ([3]; 28 mg/kg, 64 days, * p < 0.05): -88 g | Carcass Lipid Difference (treated minus control) ([3]; 28 mg/kg, 64 days, * p < 0.05): -62 g | Food Intake ([3]; 28 mg/kg, 64 days, * p < 0.05): 81 % of control | Circulating Insulin ([3]; 34 mg/kg, 28 days, * p < 0.05): 33 % of control | Body Weight Gain (treated minus control) ([3]; 34 mg/kg, 28 days, * p < 0.05): -55 g | Food Intake ([3]; 34 mg/kg, 28 days, * p < 0.05): 83 % of control | Relative Body Weight Gain Index ([3]; 38 mg/kg, 14 days, gain / days / dose (g/kg)): 92 | Food Intake ([3]; 38 mg/kg, 14 days, marked *): 73 % of control | Food Intake ([3]; 28 days of treatment, in words): dose dependent decrease | body weight ([3]; 28 days of treatment, in words): dose dependent decrease in body weight | insulin levels ([3]; 28 days of treatment, in words): dose dependent decrease | body weight ([3]; 64 days, in words): Reduced body weight | carcass lipid ([3]; 64 days, in words): decreased carcass lipid | Glucose levels ([3]; treatment of obese rats, in words): unaltered by treatment | Body Weight Gain (treated minus control) ([4]; 38 mg/kg, marked *): -49 g

O=C(CCCCCCCCc1cccnc1)N1CCC(C=C(c2ccccc2)c2ccccc2)CC1 [Example 30, 4-(2,2-Diphenylethenyl)-1-[1-oxo-9-(3-pyridinyl)nonyl]piperidine]
Perfused Pancreas Inhibition Index [1]: 1.4 | response vs control in vivo at 100 mg/kg [2]: 100% | Body Weight Gain (treated minus control) ([3]; 49 mg/kg, 14 days): -12 g | Food Intake ([3]; 49 mg/kg, 14 days): 100 % of control | Relative Body Weight Gain Index ([4]; 49 mg/kg, gain / days / dose (g/kg)): 17
